“Also recorded” adds a separate entry of the source. The star is where a group is joined. Myristoyl = CCCCCCCCCCCCCC(=O)*
Key:
DLD-1 colon cancer cells = assay type: cell-based, human; conditions: DLD-1; 72 hours; FIGS. 4B and 4C; read-out: IC50 (cell viability)
Text: (§1) Cell lines—Human breast cancer cell lines SKBR3 [Peles E et al. EMBO J. (1993) 12(3):961-71] and MCF7 [Faigenbloom L et al., Mol Syst Biol. (2015) 11(12):845] and human glioblastoma U87 [Goldberg L et al. Cancer Res. (2006) 66(24):11709-17] cell line, as well as Rat-1 fibroblast cells and H-Ras-transformed Rat-1 cells (EJ cells) [Marom M et al. J Biol Chem. (1995) 270(38):22263-70] and human Panc-1 and MIA PaCa-2 pancreatic cell lines (Rak R et al. Oncoscience. 2014 1(1):39-48; Weisz B et al. Oncogene (1999) 18, 2579±2588) were all grown in Dulbecco's modified Eagle's medium (DMEM; Biological Industries, Beithaemek, Israel). Human colorectal cancer cell lines DLD-1 (ATTC Cat No. CCL-221), HCT-116 (ATTC Cat No. CCL-247) and LNCaP prostate cancer cells were grown in Roswell Park Memorial Institute 1640 (RPMI 1640) medium and McCoy's 5A media, respectively (Sigma-Aldrich). All media were supplemented with antibiotics and 10% heat-inactivated fetal bovine serum (FBS; Gibco). Human breast cell line MCF10A [Bott A et al. Oncotarget. (2017) 8(27):43897-43914] was grown in Dulbeco's Modified Eagle's Medium/Nutrient Mixture F-12 HAM medium (DMEM F-12 HAM; Sigma-Aldrich), supplemented with antibiotics, 5% inactivated horse serum (HS; Invitrogen), 2 mM L-glutamine (Biological Industries, Beithaemek, Israel), 0.1 μg/ml cholera toxin (Sigma-Aldrich), 0.5 μg/ml hydrocortisone (Sigma-Aldrich), 10 μg/ml insulin (Biological Industries, Beithaemek, Israel) and 2 ng/ml EGF (R&D Systems). Cells were incubated at 37° C. in 5% CO2 in air, and the medium was changed every 3-4 days. Cells were passaged in trypsin/disodium ethylenediaminetetraacetic acid (Biological Industries, Beithaemek, Israel) when confluency reached 70%. One day prior to treatment the cells were plated at ~50% confluency in a medium supplemented with 10% FBS or 5% HS, accordingly.
(§2) Methylene blue viability assay—Cells were plated in 96-wells plates at cell densities of 1.5×10^3 (EJ, DLD-1), 3×10^3 (Rat-1, HCT-116, U87), 5×10^3 (SKBR3, MCF7) and 6×10^3 (MCF10A) cells/well. On the following day, cells were treated as indicated, and grown for 72 hours. Cell number determination was performed as described previously. IC-50 values were calculated using a non-linear regression model (logarithmic inhibitor vs. normalized response-variable slope) with the GraphPad Prism 6 software.

[1] = system: HCT-116 colon cancer cells; assay type: cell-based, human; conditions: HCT116; 72 hours; FIGS. 4B and 4C; read-out: IC50 (cell viability)
Text: as §1, §2

U87 glioma cells = assay type: cell-based, human; conditions: U87; 72 hours; FIGS. 4B and 4C; read-out: IC50 (cell viability)
Text: as §1, §2

[2] = system: Panc-1 pancreatic cancer cells; assay type: cell-based, human; conditions: Panc 1; 72 hours; FIGS. 4B and 4C; read-out: IC50 (cell viability)
Text: as §1, §2

[3] = system: Panc-1 (pancreatic cancer) tumor xenografts; assay: Pancreatic Tumor Growth in Nude Mice; assay type: in vivo; conditions: Panc-1 xenografts, 25 μg intraperitoneal daily, FIGS. 9A-C
Procedure: Pancreatic Tumor Growth in Nude Mice—The study was conducted according to the NIH Guidelines for Use and Care of Laboratory Animals and following the approval by Animal Care Committee of the Tel Aviv University. Nude CD1-Nu mice (25-30 g) housed in barrier facilities on a 12-h light/dark cycle one week prior to the injection of tumor cells (day zero). On day zero, 2×10^6 Panc 1 cells in 0.1 ml of PBS were implanted subcutaneously just above the right femoral joint. Tumor size was measured every 3-4 days. When the tumors were apparently seen and the calculated tumor size was 40 mm^3, the animals were divided randomly into two groups of mice (control vehicle treated and myr-NLS (SEQ ID NO: 5) treated; 8 mice per group). Treatment with the myr-NLS (SEQ ID NO: 5) was performed by intraperitoneal injection of 25 μg in 100 μl PBS (or 100 μl PBS for control mice) every day. Tumors size was measured 3 times a week. At the end of the experiment, the mice were sacrificed, and the tumors were dissected and used for further analysis.

[4] = system: DLD-1 colon cancer tumor xenografts; assay: Colon Tumor Growth in Nude Mice; assay type: in vivo; conditions: DLD-1 xenografts, 25 μg/100 μl PBS intraperitoneal daily, FIGS. 14A-C
Procedure: Colon Tumor Growth in Nude Mice—Nude CD1-Nu mice (25-30 g) housed in barrier facilities on a 12-h light/dark cycle one week prior to the injection of tumor cells (day zero). On day zero, 5×10^6 DLD-1 cells were implanted subcutaneously just above the right femoral joint. Tumor size was measured every 3-4 days. When the tumors were apparently seen, the animals were divided randomly into three groups of mice [control vehicle treated, myr-NLS1 (SEQ ID NO: 5), myr-NLS4 (SEQ ID NO: 17)]. Treatment was performed by intraperitoneal injection of 25 μg in 100 μl PBS every day. Mice were weighed and tumors size was measured 3 times a week. At the end of the experiment, the mice were sacrificed, and the tumors were dissected and used for further analysis.

MCF7 breast cancer cells = assay type: cell-based, human; conditions: MCF7
Text: as §1
as §2, with “On the following day, cells were treated as indicated, and grown for 72 hours.” left out

[5] = system: SKBR3 breast cancer cells; assay type: cell-based, human
Text: as §1
as §2, with “On the following day, cells were treated as indicated, and grown for 72 hours.” left out

[6] = system: MIA PaCa-2 pancreatic cancer cells; assay: Methylene blue viability assay, MIA PaCa-2; assay type: cell-based, human; conditions: MiaPaCa2; 72 hours; FIGS. 4B and 4C; read-out: IC50 (cell viability)
Text: Cell lines—Human breast cancer cell lines SKBR3 [Peles E et al. EMBO J. (1993) 12(3):961-71] and MCF7 [Faigenbloom L et al., Mol Syst Biol. (2015) 11(12):845] and human glioblastoma U87 [Goldberg L et al. Cancer Res. (2006) 66(24):11709-17] cell line, as well as Rat-1 fibroblast cells and H-Ras-transformed Rat-1 cells (EJ cells) [Marom M et al. J Biol Chem. (1995) 270(38):22263-70] and human Panc-1 and MIA PaCa-2 pancreatic cell lines (Rak R et al. Oncoscience. 2014 1(1):39-48; Weisz B et al. Oncogene (1999) 18, 2579±2588) were all grown in Dulbecco's modified Eagle's medium (DMEM; Biological Industries, Beithaemek, Israel). Human colorectal cancer cell lines DLD-1 (ATTC Cat No. CCL-221), HCT-116 (ATTC Cat No. CCL-247) and LNCaP prostate cancer cells were grown in Roswell Park Memorial Institute 1640 (RPMI 1640) medium and McCoy's 5A media, respectively (Sigma-Aldrich). All media were supplemented with antibiotics and 10% heat-inactivated fetal bovine serum (FBS; Gibco). Human breast cell line MCF10A [Bott A et al. Oncotarget. […]
as §2, with “On the following day, cells were treated as indicated, and grown for 72 hours. Cell number determination was performed as described previously.” left out

IC50 (DLD-1 colon cancer cells): 34.2 µM | IC50 [1]: 12.8 µM | IC50 (U87 glioma cells): 32.2 µM | IC50 [2]: 8.1 µM | IC50 (MCF7 breast cancer cells; 72 hours, FIGS. 4B and 4C, read-out: IC50 (cell viability)): 23.5 µM | IC50 ([5]; SKBR3, 72 hours, FIGS. 4B and 4C, read-out: IC50 (cell viability)): 20.6 µM | IC50 [6]: 3.95 µM
Substance: Myr-RRRHIVRKRTLRRLL-OH (Myristoyl-RRRHIVRKRTLRRLL-OH; SMILES CCCCCCCCCCCCCC(=O)N[C@@H](CCCNC(=N)N)C(=O)N[C@@H](CCCNC(=N)N)C(=O)N[C@@H](CCCNC(=N)N)C(=O)N[C@@H](Cc1c[nH]cn1)C(=O)N[C@H](C(=O)N[C@H](C(=O)N[C@@H](CCCNC(=N)N)C(=O)N[C@@H](CCCCN)C(=O)N[C@@H](CCCNC(=N)N)C(=O)N[C@H](C(=O)N[C@@H](CC(C)C)C(=O)N[C@@H](CCCNC(=N)N)C(=O)N[C@@H](CCCNC(=N)N)C(=O)N[C@@H](CC(C)C)C(=O)N[C@@H](CC(C)C)C(=O)O)[C@@H](C)O)C(C)C)[C@@H](C)CC) [myr-NLS]
tumor growth (tumor size, tumor weight) [3]: significantly reduced tumor cell growth; also recorded: inhibits pancreatic tumor growth | tumor growth (tumor size, tumor weight) [4]: significantly reduced tumor cell growth | effect on viability as compared to non-transformed MCF10 cells (MCF7 breast cancer cells; FIG. 4C): much more pronounced | viability of SKBR3 breast cancer cells ([5]; 80 μM peptide for 72 hours, FIG. 4A): significantly reduced viability | effect on viability as compared to non-transformed MCF10 cells ([5]; SKBR3, FIG. 4C): much more pronounced
